How the values were obtained:
[1] = biological target: HRH4 (Homo sapiens, UniProt Q9H3N8); test: gpcrMAX PathHunter beta-arrestin
[2] = biological target: AVPR2 (Homo sapiens, UniProt P30518); test: gpcrMAX PathHunter beta-arrestin
[3] = system: OV:SK-OV-3; parameters: method as in earlier work; conditions: NCI-60 panel; ref [4],[5],[6],[7]; cited from earlier work
[4] = biological target: EDNRA (Homo sapiens, UniProt P25101); test: gpcrMAX PathHunter beta-arrestin
[5] = biological target: CXCR6 (Homo sapiens, UniProt O00574); test: gpcrMAX PathHunter beta-arrestin
[6] = biological target: SSTR2 (Homo sapiens, UniProt P30874); test: gpcrMAX PathHunter beta-arrestin
[7] = system: LC:HOP-92; parameters: method as in earlier work; conditions: NCI-60 panel; ref [4],[5],[6],[7]; cited from earlier work
[8] = system: LC:A549/ATCC; parameters: method as in earlier work; conditions: NCI-60 panel; ref [4],[5],[6],[7]; cited from earlier work
[9] = biological target: RXFP3 (Homo sapiens, UniProt Q9NSD7); test: gpcrMAX PathHunter beta-arrestin
[10] = biological target: EDG4 (Homo sapiens, UniProt Q9HBW0); test: gpcrMAX PathHunter beta-arrestin
[11] = biological target: HTR5A (Homo sapiens, UniProt P47898); test: gpcrMAX PathHunter beta-arrestin
[12] = biological target: C5L2 (Homo sapiens, UniProt Q9P296); test: gpcrMAX PathHunter beta-arrestin
[13] = biological target: CALCR (Homo sapiens, UniProt P30988); test: gpcrMAX PathHunter beta-arrestin
[14] = system: ME:MDA-MB-435; parameters: method as in earlier work; conditions: NCI-60 panel; ref [4],[5],[6],[7]; cited from earlier work
[15] = biological target: HCRTR1 (Homo sapiens, UniProt O43613); test: gpcrMAX PathHunter beta-arrestin
[16] = biological target: NMBR (Homo sapiens, UniProt P28336); test: gpcrMAX PathHunter beta-arrestin
[17] = biological target: CCR3 (Homo sapiens, UniProt P51677); test: gpcrMAX PathHunter beta-arrestin
[18] = biological target: NMU1R (Homo sapiens, UniProt Q9HB89); test: gpcrMAX PathHunter beta-arrestin
[19] = biological target: HTR1F (Homo sapiens, UniProt P30939); test: gpcrMAX PathHunter beta-arrestin
[20] = biological target: F2RL1 (Homo sapiens, UniProt P55085); test: gpcrMAX PathHunter beta-arrestin
[21] = biological target: CRHR1 (Homo sapiens, UniProt P34998); test: gpcrMAX PathHunter beta-arrestin
[22] = biological target: AVPR1B (Homo sapiens, UniProt P47901); test: gpcrMAX PathHunter beta-arrestin
[23] = biological target: T1, CALCRL-RAMP3 (Homo sapiens, UniProt O60896+Q16602); test: gpcrMAX PathHunter beta-arrestin; type: cell-based
T1 construct: ProLink (beta-galactosidase enzyme-donor fragment)
Experimental: (§1) complementation (EFC) technology. […]
(§2) challenge at the EC80 concentration. […]
(§3) minutes. Vehicle concentration was 1%. […]
(§4) room temperature for 90 or 180 minutes. […]
(§5) instrument for chemiluminescent signal detection.
(§6) 11 GPCR MAX dose response, Agonist and Antagonist
(§7) Targets (60 Data points each): i) CALCRL‐RAMP3‐Antagonist
(§8) 180 minutes. Vehicle concentration was 1%. […]
(§9) hours. Vehicle concentration was 1%. Extended incubation is typically required to observe an inverse agonist response in the PathHunter arrestin assay.
(§10) Positive Allosteric Modulation Format
(§11) 1. For allosteric determination, cells were pre-incubated with sample followed by agonist induction at the EC20 concentration. […]
(§12) temperature for 90 or 180 minutes.
(§13) Antagonist/Negative Allosteric Modulation Format
(§14) 1. Compound activity was analyzed using CBIS data analysis suite (ChemInnovation, CA).

[24] = biological target: T2, PRLHR (Homo sapiens, UniProt P49683); test: gpcrMAX PathHunter beta-arrestin; type: cell-based
T2 construct: ProLink (beta-galactosidase enzyme-donor fragment)
Experimental: as §1, §2, §3, §4, §5, §6, §7, §8, §9, §10, §11, §12, §13, §14

[25] = biological target: T3, CXCR4 (Homo sapiens, UniProt P61073); test: gpcrMAX PathHunter beta-arrestin; type: cell-based
T3 construct: ProLink (beta-galactosidase enzyme-donor fragment)
Experimental: as §1, §2, §3, §4, §5, §6, §7, §8, §9, §10, §11, §12, §13, §14

[26] = biological target: T4, NPSR1B (Homo sapiens, UniProt Q6W5P4); test: gpcrMAX PathHunter beta-arrestin; type: cell-based
T4 construct: ProLink (beta-galactosidase enzyme-donor fragment)
Experimental: as §1, §2, §3, §4, §5, §6, §7, §8, §9, §10, §11, §12, §13, §14

[27] = biological target: T5, HTR1B (Homo sapiens, UniProt P28222); test: gpcrMAX PathHunter beta-arrestin; type: cell-based
T5 construct: ProLink (beta-galactosidase enzyme-donor fragment)
Experimental: as §1, §2, §3, §4, §5, §6, §7, §8, §9, §10, §11, §12, §13, §14

[28] = biological target: T6, GPR35 (Homo sapiens, UniProt Q9HC97); test: gpcrMAX PathHunter beta-arrestin; type: cell-based
T6 construct: ProLink (beta-galactosidase enzyme-donor fragment)
Experimental: as §1, §2, §3, §4, §5, §6, §7, §8, §9, §10, §11, §12, §13, §14

[29] = biological target: F2R (Homo sapiens, UniProt P25116); test: gpcrMAX PathHunter beta-arrestin
[30] = biological target: CCR1 (Homo sapiens, UniProt P32246); test: gpcrMAX PathHunter beta-arrestin
[31] = biological target: UTR2 (Homo sapiens, UniProt Q9UKP6); test: gpcrMAX PathHunter beta-arrestin
[32] = biological target: NTSR1 (Homo sapiens, UniProt P30989); test: gpcrMAX PathHunter beta-arrestin
[33] = biological target: LTB4R (Homo sapiens, UniProt Q15722); test: gpcrMAX PathHunter beta-arrestin
[34] = system: RE:UO-31; parameters: method as in earlier work; conditions: NCI-60 panel; ref [4],[5],[6],[7]; cited from earlier work
[35] = system: OV:OVCAR-3; parameters: method as in earlier work; conditions: NCI-60 panel; ref [4],[5],[6],[7]; cited from earlier work
[36] = antagonist format, dose response

T5 sequence (P28222 whole entry, the tested form may be a part): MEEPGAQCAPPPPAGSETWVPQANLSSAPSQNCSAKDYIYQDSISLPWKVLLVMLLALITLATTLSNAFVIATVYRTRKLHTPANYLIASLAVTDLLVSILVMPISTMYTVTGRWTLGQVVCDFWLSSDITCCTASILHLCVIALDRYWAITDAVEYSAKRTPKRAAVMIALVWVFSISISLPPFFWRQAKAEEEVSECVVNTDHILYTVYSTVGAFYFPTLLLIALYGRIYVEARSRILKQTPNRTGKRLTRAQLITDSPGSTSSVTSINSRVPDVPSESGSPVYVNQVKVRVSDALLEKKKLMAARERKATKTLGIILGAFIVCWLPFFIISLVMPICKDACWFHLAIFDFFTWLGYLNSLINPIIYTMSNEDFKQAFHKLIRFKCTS
T2 sequence (P49683 whole entry, the tested form may be a part): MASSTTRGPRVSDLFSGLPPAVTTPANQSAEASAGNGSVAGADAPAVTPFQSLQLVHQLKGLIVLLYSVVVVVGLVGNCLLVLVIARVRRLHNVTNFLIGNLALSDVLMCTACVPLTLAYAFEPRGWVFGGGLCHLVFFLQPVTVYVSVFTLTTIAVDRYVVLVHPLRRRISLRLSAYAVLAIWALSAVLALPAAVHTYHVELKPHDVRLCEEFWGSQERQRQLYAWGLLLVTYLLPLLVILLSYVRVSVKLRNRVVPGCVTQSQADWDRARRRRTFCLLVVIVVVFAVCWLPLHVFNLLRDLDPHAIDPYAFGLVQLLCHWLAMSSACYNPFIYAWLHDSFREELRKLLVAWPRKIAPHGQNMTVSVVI
T1 sequence (Q16602 23-461): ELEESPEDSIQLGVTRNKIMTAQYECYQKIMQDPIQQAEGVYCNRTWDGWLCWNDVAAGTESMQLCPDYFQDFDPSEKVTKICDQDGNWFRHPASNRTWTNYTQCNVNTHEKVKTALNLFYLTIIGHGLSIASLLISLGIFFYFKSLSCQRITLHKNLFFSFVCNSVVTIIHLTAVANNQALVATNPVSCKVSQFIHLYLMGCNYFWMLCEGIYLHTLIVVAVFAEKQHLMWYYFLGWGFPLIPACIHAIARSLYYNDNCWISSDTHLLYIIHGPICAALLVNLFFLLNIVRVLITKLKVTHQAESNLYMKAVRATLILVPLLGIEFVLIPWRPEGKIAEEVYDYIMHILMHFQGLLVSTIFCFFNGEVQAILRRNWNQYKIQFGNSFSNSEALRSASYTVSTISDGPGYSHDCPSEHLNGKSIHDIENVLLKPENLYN
T1 sequence (O60896 24-148 partner): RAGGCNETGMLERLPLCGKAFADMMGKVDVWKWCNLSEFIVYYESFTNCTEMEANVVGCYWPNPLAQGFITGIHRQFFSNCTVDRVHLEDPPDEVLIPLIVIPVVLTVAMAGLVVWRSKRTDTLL
T4 sequence (Q6W5P4 1-377 isoform Q6W5P4-4): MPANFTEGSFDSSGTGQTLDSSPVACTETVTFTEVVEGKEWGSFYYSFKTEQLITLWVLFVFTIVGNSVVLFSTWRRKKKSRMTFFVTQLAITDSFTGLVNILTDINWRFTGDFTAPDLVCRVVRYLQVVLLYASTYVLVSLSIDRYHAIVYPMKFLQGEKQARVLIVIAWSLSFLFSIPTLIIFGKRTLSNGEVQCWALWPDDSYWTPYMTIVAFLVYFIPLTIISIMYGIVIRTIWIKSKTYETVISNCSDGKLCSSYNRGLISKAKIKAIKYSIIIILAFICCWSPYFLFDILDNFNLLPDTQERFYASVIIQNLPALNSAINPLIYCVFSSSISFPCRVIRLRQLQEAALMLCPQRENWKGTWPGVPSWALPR
T3 sequence (P61073 whole entry, the tested form may be a part): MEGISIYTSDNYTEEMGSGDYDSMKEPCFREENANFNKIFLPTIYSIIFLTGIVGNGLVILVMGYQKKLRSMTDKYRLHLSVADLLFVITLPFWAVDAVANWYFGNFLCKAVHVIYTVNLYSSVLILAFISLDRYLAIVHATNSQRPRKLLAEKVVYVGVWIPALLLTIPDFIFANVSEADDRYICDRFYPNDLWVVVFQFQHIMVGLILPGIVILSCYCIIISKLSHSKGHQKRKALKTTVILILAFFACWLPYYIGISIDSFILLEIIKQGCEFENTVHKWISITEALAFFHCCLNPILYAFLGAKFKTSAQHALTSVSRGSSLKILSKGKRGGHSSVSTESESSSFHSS
T6 sequence (Q9HC97 whole entry, the tested form may be a part): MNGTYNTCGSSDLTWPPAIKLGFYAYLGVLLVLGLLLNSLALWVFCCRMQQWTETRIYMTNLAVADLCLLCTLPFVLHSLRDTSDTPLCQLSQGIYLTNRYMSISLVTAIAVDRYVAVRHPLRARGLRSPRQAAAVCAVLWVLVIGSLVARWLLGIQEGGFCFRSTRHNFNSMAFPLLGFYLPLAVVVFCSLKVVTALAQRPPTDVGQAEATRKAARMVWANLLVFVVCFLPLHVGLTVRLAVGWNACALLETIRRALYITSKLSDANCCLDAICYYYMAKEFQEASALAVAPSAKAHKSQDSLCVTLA
Chain of HRH4 (Q9H3N8 whole entry): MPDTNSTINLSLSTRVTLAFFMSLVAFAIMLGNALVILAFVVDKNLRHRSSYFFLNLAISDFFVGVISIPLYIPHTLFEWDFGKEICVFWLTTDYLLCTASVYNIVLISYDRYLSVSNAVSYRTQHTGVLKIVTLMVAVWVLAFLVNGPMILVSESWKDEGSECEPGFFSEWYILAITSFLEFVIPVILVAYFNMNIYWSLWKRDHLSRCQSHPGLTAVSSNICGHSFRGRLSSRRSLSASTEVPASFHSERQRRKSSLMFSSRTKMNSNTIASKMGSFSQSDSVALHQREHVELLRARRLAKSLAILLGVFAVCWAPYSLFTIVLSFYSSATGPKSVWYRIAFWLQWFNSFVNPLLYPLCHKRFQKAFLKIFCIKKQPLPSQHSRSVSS
Chain of AVPR2 (P30518 whole entry): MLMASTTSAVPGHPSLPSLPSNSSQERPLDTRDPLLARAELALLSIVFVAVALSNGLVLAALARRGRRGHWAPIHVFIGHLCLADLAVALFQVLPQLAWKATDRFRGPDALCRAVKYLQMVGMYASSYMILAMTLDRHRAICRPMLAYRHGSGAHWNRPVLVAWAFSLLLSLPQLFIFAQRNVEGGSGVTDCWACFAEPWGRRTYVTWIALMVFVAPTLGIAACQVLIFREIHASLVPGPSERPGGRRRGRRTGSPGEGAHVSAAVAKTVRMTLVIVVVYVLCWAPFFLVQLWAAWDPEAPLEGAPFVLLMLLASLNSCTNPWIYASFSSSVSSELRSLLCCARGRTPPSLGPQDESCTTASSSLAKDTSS
Chain of HTR1F (P30939 whole entry): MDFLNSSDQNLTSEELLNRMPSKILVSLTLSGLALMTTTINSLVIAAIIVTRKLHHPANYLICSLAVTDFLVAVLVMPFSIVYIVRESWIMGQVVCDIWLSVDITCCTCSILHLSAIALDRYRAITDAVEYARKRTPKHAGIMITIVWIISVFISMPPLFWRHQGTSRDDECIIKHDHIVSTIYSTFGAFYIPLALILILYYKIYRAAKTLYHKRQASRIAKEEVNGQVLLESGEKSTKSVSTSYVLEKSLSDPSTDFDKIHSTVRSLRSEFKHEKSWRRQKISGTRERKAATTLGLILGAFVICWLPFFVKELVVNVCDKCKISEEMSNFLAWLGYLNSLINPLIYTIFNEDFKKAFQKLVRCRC
Chain of HCRTR1 (O43613 whole entry): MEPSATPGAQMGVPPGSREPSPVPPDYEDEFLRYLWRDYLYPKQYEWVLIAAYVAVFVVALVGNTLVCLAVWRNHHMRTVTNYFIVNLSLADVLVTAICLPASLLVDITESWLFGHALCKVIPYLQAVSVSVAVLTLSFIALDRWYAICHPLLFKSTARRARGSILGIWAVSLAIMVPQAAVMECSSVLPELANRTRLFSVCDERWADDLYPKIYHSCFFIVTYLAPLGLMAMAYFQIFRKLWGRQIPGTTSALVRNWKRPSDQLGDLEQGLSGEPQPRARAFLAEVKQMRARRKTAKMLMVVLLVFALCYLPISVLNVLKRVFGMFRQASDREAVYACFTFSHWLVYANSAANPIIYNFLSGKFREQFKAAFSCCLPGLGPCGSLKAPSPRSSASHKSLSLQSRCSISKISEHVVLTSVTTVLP
Chain of CRHR1 (P34998 24-415): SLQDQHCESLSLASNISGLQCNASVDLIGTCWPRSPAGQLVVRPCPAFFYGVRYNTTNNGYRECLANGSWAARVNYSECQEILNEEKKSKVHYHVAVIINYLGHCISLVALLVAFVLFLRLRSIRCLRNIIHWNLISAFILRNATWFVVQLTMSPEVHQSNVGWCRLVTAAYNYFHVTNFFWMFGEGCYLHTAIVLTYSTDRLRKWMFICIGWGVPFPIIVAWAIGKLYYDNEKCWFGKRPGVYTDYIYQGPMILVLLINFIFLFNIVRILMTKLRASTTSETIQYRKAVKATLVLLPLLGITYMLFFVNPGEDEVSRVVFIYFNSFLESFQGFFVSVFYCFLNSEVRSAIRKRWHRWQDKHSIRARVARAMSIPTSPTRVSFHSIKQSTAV
Chain of NMU1R (Q9HB89 whole entry): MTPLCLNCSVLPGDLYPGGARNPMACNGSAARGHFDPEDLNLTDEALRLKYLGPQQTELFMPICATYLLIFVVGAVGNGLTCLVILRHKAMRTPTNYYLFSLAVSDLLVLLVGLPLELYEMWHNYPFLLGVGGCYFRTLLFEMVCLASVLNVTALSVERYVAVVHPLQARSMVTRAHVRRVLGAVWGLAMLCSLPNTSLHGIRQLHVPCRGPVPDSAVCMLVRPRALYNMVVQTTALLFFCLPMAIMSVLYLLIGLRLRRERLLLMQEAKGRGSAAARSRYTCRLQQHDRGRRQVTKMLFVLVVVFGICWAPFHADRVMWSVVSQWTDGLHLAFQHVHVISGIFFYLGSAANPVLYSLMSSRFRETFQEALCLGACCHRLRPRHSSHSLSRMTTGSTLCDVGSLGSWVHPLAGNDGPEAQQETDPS

## Cc1c(Cl)cccc1NC(=O)c1sc2nc3c(cc2c1N)C(=O)CCC3 [Compound 1]
[1]
  inhibition at 10 µM: 32%
[2]
  inhibition at 10 µM: 13%
[3]
  GI50: 0.0606 µM
[4]
  inhibition at 10 µM: -18%
[5]
  inhibition at 10 µM: 5%
[6]
  inhibition at 10 µM: 9%
[7]
  GI50: 0.0479 µM
[8]
  GI50: 0.0631 µM
[9]
  inhibition at 10 µM: -27%
[10]
  inhibition at 10 µM: 7%
[11]
  inhibition at 10 µM: 2%
[12]
  inhibition at 10 µM: -20%
[13]
  inhibition at 10 µM: -18%
[14]
  GI50: 0.0187 µM
[15]
  inhibition at 10 µM: 13%
[16]
  inhibition at 10 µM: 28%
[17]
  inhibition at 10 µM: -47%
[18]
  inhibition at 10 µM: 2%
[19]
  inhibition at 10 µM: -21%
[20]
  inhibition at 10 µM: 11%
[21]
  inhibition at 10 µM: 20%
[22]
  inhibition at 10 µM: 3%
[23]; [36]
  IC50: 11.9 µM
[23]; antagonist mode, 10 µM
  inhibition at 10 µM: 63%
[24]; [36]
  IC50: 9.3 µM
[24]; antagonist mode, 10 µM
  inhibition at 10 µM: 44%
[25]; [36]
  IC50: 6.9 µM
[25]; antagonist mode, 10 µM
  inhibition at 10 µM: 39%
[26]; [36]
  IC50: 1 µM
[26]; antagonist mode, 10 µM
  inhibition at 10 µM: 59%
[27]; [36]
  IC50: > 50 µM
[27]; antagonist mode, 10 µM
  inhibition at 10 µM: 42%
[28]; agonist format, dose response
  EC50: 7.5 µM
[28]; antagonist mode, 10 µM
  inhibition at 10 µM: -12%
[29]
  inhibition at 10 µM: 5%
[30]
  inhibition at 10 µM: -10%
[31]
  inhibition at 10 µM: 10%
[32]
  inhibition at 10 µM: 12%
[33]
  inhibition at 10 µM: 4%
[34]
  GI50: 0.0731 µM
[35]
  GI50: 0.0489 µM

From publication PMC6149898, “GPCR Modulation of Thieno[2,3-b]pyridine Anti-Proliferative Agents” (Molecules : A Journal of Synthetic Chemistry and Natural …, 2017)
